Measurements: patent US20210052705A1, “METHOD OF DRUG […] FOR PTH, PTHrP AND RELATED PEPTIDES” (Radius Health, Inc., priority 2011, published 2021)
Like-named read-outs stand apart in the source and are kept apart here.

How the values were obtained:
[1] = male, Sprague Dawley, rat, in vivo
Protocol: Certain drug coated microarrays were tested in vivo in a preclinical model using Sprague Dawley rats. […] Male Sprague Dawley rats with jugular vein catheters were purchased from Charles River Laboratories. Once received, they were acclimated for at least 24 hours prior to dosing.
Typically, one hour prior to dosing microneedle arrays were removed from refrigeration (approximately 4° C.) and allowed to equilibrate to room temperature.
The standard procedure for skin preparation and microneedle array application is as follows.
One day prior to dosing, an area just above the hind legs on the dorsal surface of the rat was shaved using electric clippers. Nair® hair removal lotion (Church & Dwight Co.) was then applied to the area for 5 to 8 minutes to remove remaining fur stubble. The Nair® lotion was then thoroughly removed using a damp cloth. The next day a microneedle array was applied using a spring-loaded applicator. The microneedle array was left in contact with skin for five minutes, before being removed. During array application and contact time the rats were manually restrained.
Blood was collected at three time points from each animal out of a possible total of five time destinations (5 minutes, 15 minutes, 30 minutes, 45 minutes, 90 minutes) from each rat on a staggered schedule so that all time points would be represented with extra sampling at 15 minutes without overdrawing from any animal. Approximately 1 mL of blood was collected via the catheter from the jugular vein using a syringe and needle from rats for their first two blood draws. For the terminal blood collection, animals were euthanized via CO2 chamber and approximately 1 mL of blood was collected via cardiac puncture. The blood was immediately transferred to a serum separator tube that contained 25 μL of a 2.5 mg/ml aprotinin (Sigma) solution.
Blood was collected from each rat 5, 10, 15, 30 and 45 minutes post dose. Approximately 600 μL of blood was collected via the catheter from the jugular vein using a syringe and needle from rats for their first four blood draws. For the terminal blood collection, animals were euthanized via CO2 chamber and approximately 600 μL of blood was collected via cardiac puncture. The blood was immediately transferred to a serum separator tube that contained 12 μL of a 2.5 mg/ml aprotinin (Sigma) solution.
Blood was collected three or four times from each rat at the time points depicted in the tables below. Approximately 1 mL of blood was collected via the catheter from the jugular vein using a syringe and needle from rats for any non-terminal time points. For the terminal blood collection, animals were euthanized via CO2 chamber and approximately 1 mL of blood was collected via cardiac puncture. The blood was immediately transferred to a serum separator tube that contained 20 μL of a 2.5 mg/ml aprotinin (Sigma) solution.
Blood was collected from each rat 5, 15, 30, 45, 90 and 120 minutes post dose. Approximately 500 μL of blood was collected via the catheter from the jugular vein using a syringe and needle from rats for their first five blood draws. For the terminal blood collection, animals were euthanized via CO2 chamber and approximately 500 μL of blood was collected via cardiac puncture.

[2] = in vivo; conditions: Sprague-Dawley, rat, 13.6 ug
Protocol: Several additional single dose pharmacokinetic studies were performed in Sprague-Dawley rats.
Dose Administration Typically, one day prior to dosing, an area just above the hind legs on the dorsal side of the rat was shaved using electric clippers. Nair® hair removal lotion was then applied to the area for 5 to 8 minutes to remove remaining hair stubble. The Nair lotion was removed completely using a cloth dampened with water. The next day the microneedle array was applied using the supplied spring loaded applicator. The microneedle array was left in contact with the skin for either five minutes before removal or removed almost immediately (typically 2-3 seconds after skin contact). During microneedle application and contact, the rats were manually restrained.
Serum Sample Collection Blood was collected from each rat at 5, 15, 30, 45 and 90 minutes after application of microneedle arrays, for LCP-microneedle arrays and at 1, 5, 15 and 30 minutes after application for PC-microneedle arrays. Approximately 600 μL of blood was collected via the catheter from the jugular vein using a syringe and needle from rats for their first four blood draws. For the last blood collection, animals were euthanized via CO2 chamber and approximately 600 μL of blood was collected via cardiac puncture. The blood was immediately transferred to a serum separator tube that contained 12 μL of a 2.5 mg/ml aprotinin (Sigma) solution.

For `CC[C@H](C)[C@H](NC(=O)[C@H](CO)NC(=O)[C@H](CCCCN)NC(=O)CNC(=O)[C@H](CCCCN)NC(=O)[C@H](CC(=O)O)NC(=O)[C@H](Cc1cnc[nH]1)NC(=O)[C@H](CC(C)C)NC(=O)[C@H](CC(C)C)NC(=O)[C@H](CCC(N)=O)NC(=O)[C@H](Cc1cnc[nH]1)NC(=O)[C@H](CCC(=O)O)NC(=O)[C@H](CO)NC(=O)[C@@H](NC(=O)[C@H](C)N)C(C)C)C(=O)N[C@@H](CCC(N)=O)C(=O)N[C@@H](CC(=O)O)C(=O)N[C@@H](CC(C)C)C(=O)N[C@@H](CCCNC(=N)N)C(=O)N[C@@H](CCCNC(=N)N)C(=O)N[C@@H](CCCNC(=N)N)C(=O)N[C@@H](CCC(=O)O)C(=O)N[C@@H](CC(C)C)C(=O)N[C@@H](CC(C)C)C(=O)N[C@@H](CCC(=O)O)C(=O)N[C@@H](CCCCN)C(=O)N[C@@H](CC(C)C)C(=O)N[C@@H](CC(C)C)C(=O)NC(C)(C)C(=O)N[C@@H](CCCCN)C(=O)N[C@@H](CC(C)C)C(=O)N[C@@H](Cc1cnc[nH]1)C(=O)N[C@H](C(=O)N[C@@H](C)C(N)=O)[C@@H](C)O` [Peptide], the AUC(0-t) ([1]; 20 ug/kg) was 166 ng·min/mL, the Cmax ([1]; 20 ug/kg) was 7.15 ng/mL and the “Cmax (20 μg/kg Dose)” value ([1]; 20 ug/kg) was 7.15 ng/mL. For the same molecule, the T1/2 ([1]; 20 ug/kg) was 14 min, the Tmax ([1]; 20 ug/kg) was 15 min and the “Concentrations of Peptide in Serum” value ([1]; 26.2 ug, 5 min) was 45.29 ng/mL. For the same molecule, the “Concentrations of Peptide in Serum” value ([1]; 26.2 ug, 0.25 h) was 59.72 ng/mL, the “Concentrations of Peptide in Serum” value ([1]; 26.2 ug, 0.5 h) was 20.15 ng/mL and the “Concentrations of Peptide in Serum” value ([1]; 26.2 ug, 0.75 h) was 11.63 ng/mL. The T1/2 ([1]; 27 ug) was 26 min, the Tmax ([1]; 27 ug) was 15 min and the “Concentrations of Peptide in Serum” value ([1]; 27 ug, 5 min) was 21.34 ng/mL. The “Concentrations of Peptide in Serum” value ([1]; 27 ug, 0.25 h) was 31.08 ng/mL, the “Concentrations of Peptide in Serum” value ([1]; 27 ug, 0.5 h) was 12.43 ng/mL and the “Concentrations of Peptide in Serum” value ([1]; 27 ug, 0.75 h) was 6.99 ng/mL. The “Concentrations of Peptide in Serum” value ([1]; 32 ug, 5 min) was 37.76 ng/mL, the “Concentrations of Peptide in Serum” value ([1]; 32 ug, 10 min) was 29.94 ng/mL and the “Concentrations of Peptide in Serum” value ([1]; 32 ug, 0.25 h) was 37.48 ng/mL. For the same molecule, the “Concentrations of Peptide in Serum” value ([1]; 32 ug, 0.5 h) was 15.99 ng/mL, the “Concentrations of Peptide in Serum” value ([1]; 32 ug, 0.75 h) was 8.39 ng/mL and the AUC(0-t) ([1]; 141.9 ug) was 5199 ng·min/mL. For the same molecule, the Cmax ([1]; 141.9 ug) was 153.74 ng/mL, the Tmax ([1]; 141.9 ug) was 15 min and the “% F” value ([1]; 386.5 ug) was 24%. For the same molecule, the AUC(0-t) ([1]; 386.5 ug) was 6899 ng·min/mL, the Cmax ([1]; 386.5 ug) was 179.02 ng/mL and the T1/2 ([1]; 386.5 ug) was 16 min. The Tmax ([1]; 386.5 ug) was 15 min, the AUC ([2]; AUC5-90, Mean) was 3.68 ng·h/mL and the Cmax ([2]; Cmax, Mean) was 9.7 ng/mL. The level at 5 min ([2]; Concentration in Serum at 5 min, Mean) was 8.8 ng/mL, the level at 0.25 h ([2]; Concentration in Serum at 15 min, Mean) was 8.6 ng/mL and the level at 0.5 h ([2]; Concentration in Serum at 30 min, Mean) was 6 ng/mL. For the same molecule, the Tmax ([2]; Tmax, Mean) was 9 min.
